Bridge positions count the residues as written; N and C are the ends. Square brackets hold non-standard residues; d marks the D form. Peptide text beside a SMILES is read from it. * marks the point of attachment. ξ: configuration not given here. Tyr(3-NO2) = N[C@@H](Cc1ccc(O)c([N+](=O)[O-])c1)C(=O)O; Phe(4-COOH) = N[C@@H](Cc1ccc(C(=O)O)cc1)C(=O)O; Bip = N[C@@H](Cc1ccc(-c2ccccc2)cc1)C(=O)O; Phe(4-Cl) = N[C@@H](Cc1ccc(Cl)cc1)C(=O)O; dPhe(4-Br) = N[C@H](Cc1ccc(Br)cc1)C(=O)O; Phe(3-Me) = Cc1cccc(C[C@H](N)C(=O)O)c1; 2Nal = N[C@@H](Cc1ccc2ccccc2c1)C(=O)O; Val(3-OH) = CC(C)(O)[C@H](N)C(=O)O; hPhe = N[C@@H](CCc1ccccc1)C(=O)O; 3Thi = N[C@@H](Cc1ccsc1)C(=O)O; Cha = N[C@@H](CC1CCCCC1)C(=O)O; Ile(3ξ) = CCC(C)[C@H](N)C(=O)O; Thr(3ξ) = CC(O)[C@H](N)C(=O)O; Carboxymethyl = O=C(O)C*; NMeA = CN[C@@H](C)C(=O)O; Orn = NCCC[C@H](N)C(=O)O; Dab = NCC[C@H](N)C(=O)O; Dap = NC[C@H](N)C(=O)O; NH(CH2)3NH2 = NCCCN*

In the experiment the target is T1, PE-labeled human PD-L1-Ig binding to Jurkat cell line over-expressing human PD-1 (Jurkat-PD-1) (Homo sapiens, UniProt Q15116).
T1 construct: expressed in transfected cells; host or cells: Jurkat
T1 sequence (Q15116 25-288): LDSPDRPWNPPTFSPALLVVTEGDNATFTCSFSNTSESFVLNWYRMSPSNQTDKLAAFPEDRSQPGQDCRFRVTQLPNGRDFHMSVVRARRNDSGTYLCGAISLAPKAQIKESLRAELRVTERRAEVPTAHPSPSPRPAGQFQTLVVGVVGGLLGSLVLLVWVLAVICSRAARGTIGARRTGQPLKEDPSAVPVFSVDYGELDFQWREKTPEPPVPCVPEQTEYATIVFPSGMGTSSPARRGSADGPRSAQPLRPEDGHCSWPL
Kind of experiment: Jurkat-PD-1 Cell Binding High-Content Screening Assay (CBA): Method 1. Conditions: Jurkat-hPD-1 cells, PE-labeled PD-L1-Ig 20 nM final; read-out: Jurkat HPDL1 PD1 IC50 (uM) (Method 1).

As to `CCC(C)[C@@H]1NC(=O)[C@H](Cc2ccc(-c3ccccc3)cc2)NC(=O)[C@H](C(C)C)NC(=O)[C@H](Cc2c[nH]c3ccccc23)NC(=O)[C@H](CC(=O)O)NC(=O)[C@H](Cc2ccc(O)cc2)NC(=O)[C@H](Cc2ccsc2)NC(=O)CSC[C@@H](C(=O)NCCCN)NC(=O)[C@H](C(C)O)NC(=O)[C@H](C(C)(C)O)NC(=O)[C@H](CC2CCCCC2)NC(=O)[C@H](CC(N)=O)NC(=O)[C@@H](CC(C)C)NC(=O)[C@H](C)N(C)C1=O` (stereo partly drawn) [Compound 2247] ({CH2CO}-[3Thi]YDWV[Bip][Ile(3ξ)][NMeA][dL]N[Cha][Val(3-OH)][Thr(3ξ)]C-{NH(CH2)3NH2}; thioether N-14), the IC50 (usually the concentration that gives 50% inhibition) worked out at 0.06 µM.
Then `CC[C@H](C)[C@@H]1NC(=O)[C@H](Cc2ccc(-c3ccccc3)cc2)NC(=O)[C@H](C(C)C)NC(=O)[C@H](Cc2c[nH]c3ccccc23)NC(=O)[C@H](CC(=O)O)NC(=O)[C@H](Cc2ccc(O)cc2)NC(=O)[C@H](CCC(N)=O)NC(=O)CSC[C@@H](C(=O)N[C@@H](C)C(N)=O)NC(=O)[C@H]([C@@H](C)O)NC(=O)[C@H](C(C)C)NC(=O)[C@H](CC(C)C)NC(=O)[C@H](CCN)NC(=O)[C@@H](CC(C)C)NC(=O)[C@H](C)N(C)C1=O` [Compound 1391] ({CH2CO}-QYDWV[Bip]I[NMeA][dL][Dab]LVTCA-NH2; thioether N-14), with 0.03 µM; and `CC(C)C[C@@H]1NC(=O)[C@H](CCN)NC(=O)[C@@H](CC(C)C)NC(=O)[C@H](C)N(C)C(=O)[C@H](CCCNC(=N)N)NC(=O)[C@H](Cc2ccc(-c3ccccc3)cc2)NC(=O)[C@H](C(C)C)NC(=O)[C@H](Cc2c[nH]c3ccccc23)NC(=O)[C@H](CC(=O)O)NC(=O)[C@H](Cc2ccc(O)cc2)NC(=O)[C@H](CC(N)=O)NC(=O)CSC[C@@H](C(=O)N[C@@H](C)C(N)=O)NC(=O)[C@H](CCCN)NC(=O)[C@H](C(C)C)NC1=O` [Compound 1242] ({CH2CO}-NYDWV[Bip]R[NMeA][dL][Dab]LV[Orn]CA-NH2; thioether N-14), with 0.09 µM.
Then `CC(C)C[C@@H]1NC(=O)[C@H](Cc2c[nH]c3ccccc23)NC(=O)[C@H](CC(=O)O)NC(=O)[C@H](Cc2ccc(C(=O)O)cc2)NC(=O)[C@H](Cc2ccc(OCC(=O)O)cc2)NC(=O)CSC[C@@H](C(=O)N[C@@H](CO)C(N)=O)NC(=O)[C@H](CO)NC(=O)[C@H](C(C)C)NC(=O)[C@H](CC2CCCCC2)NC(=O)[C@H](CCN)NC(=O)[C@@H](CC(C)C)NC(=O)[C@H](C)N(C)C(=O)[C@H](C(C)C)NC(=O)[C@H](Cc2ccc(-c3ccccc3)cc2)NC1=O` [Compound 1913] ({CH2CO}-Y(Carboxymethyl)[Phe(4-COOH)]DWL[Bip]V[NMeA][dL][Dab][Cha]VSCS-NH2; thioether N-14), with 0.01 µM; and `CC(C)C[C@@H]1NC(=O)[C@H](CCCNC(=N)N)NC(=O)[C@@H](Cc2ccc(Br)cc2)NC(=O)[C@H](C)N(C)C(=O)[C@H](CCCNC(=N)N)NC(=O)[C@H](Cc2ccc(-c3ccccc3)cc2)NC(=O)[C@H](C(C)C)NC(=O)[C@H](Cc2c[nH]c3ccccc23)NC(=O)[C@H](CC(=O)O)NC(=O)[C@H](Cc2ccc(O)cc2)NC(=O)[C@H](Cc2ccccc2)NC(=O)CSC[C@@H](C(=O)N[C@@H](C)C(N)=O)NC(=O)[C@H]([C@@H](C)O)NC(=O)[C@H](C(C)C)NC1=O` [Compound 1086] ({CH2CO}-FYDWV[Bip]R[NMeA][dPhe(4-Br)]RLVTCA-NH2; thioether N-14), with 0.69 µM; and `Cc1cccc(C[C@@H]2NC(=O)[C@H](CC(=O)O)NC(=O)[C@H](Cc3ccc(OCC(=O)O)cc3)NC(=O)[C@H](CN)NC(=O)CSC[C@@H](C(N)=O)NC(=O)[C@H](CCCN)NC(=O)[C@H](C(C)C)NC(=O)[C@H](CC3CCCCC3)NC(=O)[C@H](CCN)NC(=O)[C@@H](CC(C)C)NC(=O)[C@H](C)N(C)C(=O)[C@H](Cc3ccc(OCC(=O)O)cc3)NC(=O)[C@H](Cc3ccc(-c4ccccc4)cc3)NC(=O)[C@H](Cc3ccc(OCC(=O)O)cc3)NC2=O)c1` [Compound 1646] ({CH2CO}-[Dap]Y(Carboxymethyl)D[Phe(3-Me)]Y(Carboxymethyl)[Bip]Y(Carboxymethyl)[NMeA][dL][Dab][Cha]V[Orn]C-NH2; thioether N-14), with 0.03 µM.
Then `CC(C)C[C@@H]1NC(=O)[C@H](CCN)NC(=O)[C@@H](CC(C)C)NC(=O)[C@H](C)N(C)C(=O)[C@H](CCC(=O)O)NC(=O)[C@H](Cc2ccc(-c3ccccc3)cc2)NC(=O)[C@H](C(C)C)NC(=O)[C@H](Cc2c[nH]c3ccccc23)NC(=O)[C@H](CC(=O)O)NC(=O)[C@H](Cc2ccc(O)cc2)NC(=O)[C@H](CC(N)=O)NC(=O)CSC[C@@H](C(=O)N[C@@H](C)C(N)=O)NC(=O)[C@H]([C@@H](C)O)NC(=O)[C@H](C(C)C)NC1=O` [Compound 1255] ({CH2CO}-NYDWV[Bip]E[NMeA][dL][Dab]LVTCA-NH2; thioether N-14), with 0.03 µM; and `CC[C@H](C)[C@@H]1NC(=O)[C@H](Cc2ccc(-c3ccccc3)cc2)NC(=O)[C@H](C(C)C)NC(=O)[C@H](Cc2c[nH]c3ccccc23)NC(=O)[C@H](CC(=O)O)NC(=O)[C@H](Cc2ccc(OCC(=O)O)cc2)NC(=O)[C@H](Cc2ccc(OCC(=O)O)cc2)NC(=O)CSC[C@@H](C(=O)N[C@@H](C)C(N)=O)NC(=O)[C@H]([C@@H](C)O)NC(=O)[C@H](C(C)C)NC(=O)[C@H](CC(C)C)NC(=O)[C@H](CCN)NC(=O)[C@@H](CC(C)C)NC(=O)[C@H](C)N(C)C1=O` [Compound 1568] ({CH2CO}-Y(Carboxymethyl)Y(Carboxymethyl)DWV[Bip]I[NMeA][dL][Dab]LVTCA-NH2; thioether N-14), with 0.01 µM.
Consider `CC(C)C[C@@H]1NC(=O)[C@H](Cc2c[nH]c3ccccc23)NC(=O)[C@H](CC(=O)O)NC(=O)[C@H](Cc2ccc3ccccc3c2)NC(=O)[C@H](Cc2ccccc2)NC(=O)CSC[C@@H](C(=O)N[C@@H](C)C(N)=O)NC(=O)[C@H](CO)NC(=O)[C@H](C(C)C)NC(=O)[C@H](CC(C)C)NC(=O)[C@H](CC(N)=O)NC(=O)[C@@H](C)NC(=O)[C@H](C)N(C)C(=O)[C@H](C(C)C)NC(=O)[C@H](Cc2ccc(-c3ccccc3)cc2)NC1=O` [Compound 1800] ({CH2CO}-F[2Nal]DWL[Bip]V[NMeA][dA]NLVSCA-NH2; thioether N-14), for which the IC50 was 0.18 µM.
Then `CC(C)C[C@@H]1NC(=O)[C@H](CCCNC(=N)N)NC(=O)[C@@H](CC(C)C)NC(=O)[C@H](C)N(C)C(=O)[C@H](CCCNC(=N)N)NC(=O)[C@H](Cc2ccc(-c3ccccc3)cc2)NC(=O)[C@H](C(C)C)NC(=O)[C@H](Cc2c[nH]c3ccccc23)NC(=O)[C@H](CC(=O)O)NC(=O)[C@H](Cc2ccc(Cl)cc2)NC(=O)[C@H](Cc2ccccc2)NC(=O)CSC[C@@H](C(=O)N[C@@H](C)C(N)=O)NC(=O)[C@H]([C@@H](C)O)NC(=O)[C@H](C(C)C)NC1=O` [Compound 1081] ({CH2CO}-F[Phe(4-Cl)]DWV[Bip]R[NMeA][dL]RLVTCA-NH2; thioether N-14), with 0.06 µM; and `CC(C)C[C@@H]1NC(=O)[C@H](Cc2c[nH]c3ccccc23)NC(=O)[C@H](CC(=O)O)NC(=O)[C@H](Cc2ccc(O)cc2)NC(=O)[C@H](Cc2cnc[nH]2)NC(=O)CSC[C@@H](C(=O)N[C@@H](C)C(N)=O)NC(=O)[C@H](CO)NC(=O)[C@H](C(C)C)NC(=O)[C@H](CC(C)C)NC(=O)[C@H](CC(N)=O)NC(=O)[C@@H](C)NC(=O)[C@H](C)N(C)C(=O)[C@H](C(C)C)NC(=O)[C@H](Cc2ccc(-c3ccccc3)cc2)NC1=O` [Compound 1736] ({CH2CO}-HYDWL[Bip]V[NMeA][dA]NLVSCA-NH2; thioether N-14), with 0.02 µM; and `CCNC(=O)[C@H](CCN)NC(=O)[C@@H]1CSCC(=O)N[C@@H](CCc2ccccc2)C(=O)N[C@@H](Cc2ccc(OCC(=O)O)cc2)C(=O)N[C@@H](CC(=O)O)C(=O)N[C@@H](Cc2cccc(C)c2)C(=O)N[C@@H](Cc2ccc(OCC(=O)O)cc2)C(=O)N[C@@H](Cc2ccc(-c3ccccc3)cc2)C(=O)N[C@@H](Cc2ccc(OCC(=O)O)cc2)C(=O)N(C)[C@@H](C)C(=O)N[C@H](CC(C)C)C(=O)N[C@@H](CCN)C(=O)N[C@@H](CC2CCCCC2)C(=O)N[C@@H](C(C)C)C(=O)N[C@@H]([C@@H](C)O)C(=O)N1` [Compound 1855] ({CH2CO}-[hPhe]Y(Carboxymethyl)D[Phe(3-Me)]Y(Carboxymethyl)[Bip]Y(Carboxymethyl)[NMeA][dL][Dab][Cha]VTC[Dab]-NHEt; thioether N-14), with 0.01 µM.
On to `CC(=O)NCCCC[C@@H]1NC(=O)[C@H](C(C)C)NC(=O)[C@H](CC2CCCCC2)NC(=O)[C@H](CCC(=O)O)NC(=O)[C@@H](CC(C)C)NC(=O)[C@H](C)N(C)C(=O)[C@H](Cc2cnc[nH]2)NC(=O)[C@H](Cc2ccc(-c3ccccc3)cc2)NC(=O)[C@H](CC(C)C)NC(=O)[C@H](Cc2cccc(C)c2)NC(=O)[C@H](CC(=O)O)NC(=O)[C@H](Cc2ccc(OCC(=O)O)cc2)NC(=O)[C@H](Cc2ccc(OCC(=O)O)cc2)NC(=O)CSC[C@@H](C(=O)N[C@H](C)C(N)=O)NC1=O` [Compound 2124] ({CH2CO}-Y(Carboxymethyl)Y(Carboxymethyl)D[Phe(3-Me)]L[Bip]H[NMeA][dL]E[Cha]VK(Ac)C[dA]-NH2; thioether N-14), for which the IC50 was 0.04 µM.
For the molecule `CC(C)C[C@@H]1NC(=O)[C@H](Cc2c[nH]c3ccccc23)NC(=O)[C@H](CC(=O)O)NC(=O)[C@H](Cc2ccc(O)c([N+](=O)[O-])c2)NC(=O)[C@H](Cc2ccccc2)NC(=O)CSC[C@@H](C(=O)N[C@@H](C)C(N)=O)NC(=O)[C@H](CO)NC(=O)[C@H](C(C)C)NC(=O)[C@H](CC(C)C)NC(=O)[C@H](CC(N)=O)NC(=O)[C@@H](C)NC(=O)[C@H](C)N(C)C(=O)[C@H](C(C)C)NC(=O)[C@H](Cc2ccc(-c3ccccc3)cc2)NC1=O` [Compound 1738] ({CH2CO}-F[Tyr(3-NO2)]DWL[Bip]V[NMeA][dA]NLVSCA-NH2; thioether N-14), the IC50 was 0.02 µM.

Source of the values: patent US20240409585A1, “MACROCYCLIC IMMUNOMODULATORS” (priority 2021, published 2024).
